From patent US20250122221A1 (NANJING ZAIMING PHARMACEUTICAL CO., LTD., priority 2022, published 2025)
Where two headings read alike, the source gives them in different places.

What was measured:
[1] = target: N-terminal active peptide segment (MI-N899) of POLQ with ATPase activity (Homo sapiens (Human), UniProt O75417); assay: POLQ enzyme activity inhibition experiment (ATPase, NADH-coupled, OD 340 nm); type: biochemical; details: 100 nM POLQ (N), 100 μM ATP, 300 nM dT50
DLD-1 BRCA2 (−/−) cells = assay: Inhibition of tumour cell proliferation, 7 days, CTG; type: cell-based; details: Homo sapiens, read-out: DLD-1 BRCA2 (−/−) IC50
Description: (§1) Brief introduction to the experimental principle: The compounds were co-incubated with tumour cells for 7 days, and then a CTG kit from Promega Inc was used to quantify ATP in viable cells, thus reflecting the effect of the compounds on tumour cell proliferation.
(§2) Experimental method: DLD-1 parental cells or DLD-1 BRCA2 (−/−) cells were diluted with RPMI 1640 medium containing 10% FBS, and then added to a 96-well plate (90 μL/well), with the number of cells being 600 cells/well or 1200 cells/well, respectively, and cultured overnight in a 37° C., 5% CO2 incubator. The compounds to be tested were diluted to different concentrations in dimethyl sulfoxide (DMSO), and then added to a 96-well plate. The final concentration of the compounds in the reaction system started from 25 μM, and was subjected to 4-fold gradient dilution. The concentration range of the compounds was from 25 μM to 0.0004 μM, and the final concentration of DMSO was 0.25% v/v. After 7 days of incubation, 50 μL/well CTG was added, and the mixture was incubated at room temperature for 10 minutes. Subsequently, the luminescence (Lum) signal value was read with an Envision microplate reader, and the inhibition rate and half inhibitory concentration (IC50) were calculated.
(§3) The inhibition rate was calculated, and XLfit software was used to perform fitting to obtain IC50 of the compounds.
(§4) In the experiment, a blank well and a DMSO well were set up, respectively.
(§5) Inhibition rate=100*(Lummax−Lumcompound)/(Lummax−Lummin)%, • where Lummax refers to the luminescence signal value of the well containing cells and 0.25% v/v DMSO; Lumcompound refers to the luminescence signal value of the well containing the compound and cells; and Lummin refers to the luminescence signal value of the well containing the medium and 0.25% v/v DMSO.

DLD-1 parental cells = assay: as above; type: cell-based; details: Homo sapiens, read-out: DLD-1 parental cell IC50
Description: as §1, §2, §3, §4, §5

[2] = 168 h, DLD-1 BRCA2 (−/−) cells, 7 days of incubation, CTG
[3] = 168 h, DLD-1 parental cells, 7 days of incubation, CTG

Chain of N-terminal active peptide segment (MI-N899) of POLQ with ATPase activity (O75417 1-899 limits assumed): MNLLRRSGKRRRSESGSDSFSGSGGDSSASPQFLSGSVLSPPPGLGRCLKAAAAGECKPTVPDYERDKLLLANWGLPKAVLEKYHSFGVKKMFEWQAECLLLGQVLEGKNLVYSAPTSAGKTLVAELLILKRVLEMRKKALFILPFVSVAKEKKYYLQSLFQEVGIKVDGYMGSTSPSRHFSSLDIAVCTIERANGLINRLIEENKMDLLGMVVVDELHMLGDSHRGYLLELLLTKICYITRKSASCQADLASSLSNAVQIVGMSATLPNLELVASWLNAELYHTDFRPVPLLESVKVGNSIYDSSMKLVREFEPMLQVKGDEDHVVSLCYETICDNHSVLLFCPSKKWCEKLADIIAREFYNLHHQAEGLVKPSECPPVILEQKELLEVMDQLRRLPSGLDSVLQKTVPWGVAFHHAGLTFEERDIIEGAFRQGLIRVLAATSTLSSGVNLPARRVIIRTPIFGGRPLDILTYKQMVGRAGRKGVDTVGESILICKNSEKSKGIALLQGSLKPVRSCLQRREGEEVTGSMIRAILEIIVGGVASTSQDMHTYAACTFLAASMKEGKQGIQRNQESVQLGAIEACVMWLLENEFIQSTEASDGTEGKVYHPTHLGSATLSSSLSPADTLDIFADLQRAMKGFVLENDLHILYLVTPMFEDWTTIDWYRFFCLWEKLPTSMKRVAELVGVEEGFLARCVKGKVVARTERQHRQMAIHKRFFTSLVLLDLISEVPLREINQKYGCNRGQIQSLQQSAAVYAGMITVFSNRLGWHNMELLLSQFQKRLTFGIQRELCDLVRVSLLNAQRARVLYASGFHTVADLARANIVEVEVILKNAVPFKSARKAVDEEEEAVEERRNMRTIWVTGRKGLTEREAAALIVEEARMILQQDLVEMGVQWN

Row | IC50 [1] | IC50 (DLD-1 BRCA2 (−/−) cells; [2]) | Compound | IC50 (DLD-1 parental cells; [3]) | IC50 (DLD-1 BRCA2 (−/−) cells; DLD-1, 168 h) | IC50 (DLD-1 parental cells; DLD-1, 168 h)
1 | < 100 nM | < 200 nM | COc1ccc(C2CC2)cc1-c1cc(C)ncc1C(=O)Nc1nc2ncc(-c3ccc(C#N)cc3)nc2s1 [Compound 84, N-(6-(4-cyanophenyl)thiazolo[4,5-b]pyrazin-2-yl)-4-(5-cyclopropyl-2-methoxyphenyl)-6-methylpyridine-3-carboxamide] | > 10 µM |  | 
2 | < 100 nM | < 200 nM | COc1ccc(C2CC2)cc1-c1cc(C)ncc1C(=O)Nc1nc2ncc(-c3ccc(OC(F)F)cc3)nc2s1 [Compound 85, 4-(5-cyclopropyl-2-methoxyphenyl)-N-(6-(4-(difluoromethoxy)phenyl)thiazolo[4,5-b]pyrazin-2-yl)-6-methylpyridine-3-carboxamide] | > 10 µM |  | 
3 | < 100 nM | < 200 nM | COc1ccc(C(F)(F)F)cc1-c1cc(C)ncc1C(=O)Nc1nc2ncc(-c3ccc(C#N)cc3)nc2s1 [Compound 86, N-(6-(4-cyanophenyl)thiazolo[4,5-b]pyrazin-2-yl)-4-(2-methoxy-5-(trifluoromethyl)phenyl)-6-methylpyridine-3-carboxamide] | > 10 µM |  | 
4 | < 100 nM | < 200 nM | Cc1cc(-c2cc(Cl)ccc2Cl)c(C(=O)Nc2nc3ncc(-c4ccc(C#N)cc4)nc3s2)cn1 [Compound 87, N-(6-(4-cyanophenyl)thiazolo[4,5-b]pyrazin-2-yl)-4-(2,5-dichlorophenyl)-6-methylpyridine-3-carboxamide] | > 10 µM |  | 
5 | < 100 nM | < 200 nM | COc1cnc(C)cc1-c1cc(C)ccc1C(=O)Nc1nc2ncc(-c3ccc(C#N)cc3)nc2s1 [Compound 92, N-(6-(4-cyanophenyl)thiazolo[4,5-b]pyrazin-2-yl)-2-(5-methoxy-2-methylpyridine-4-yl)-4-methylbenzamide] | > 10 µM |  | 
6 | < 100 nM | < 200 nM | COc1ccc(Cl)cc1-c1cc(C)ccc1C(=O)Nc1nc2ncc(-c3ccc(C#N)cc3)nc2s1 [Compound 93, 5′-chloro-N-(6-(4-cyanophenyl)thiazolo[4,5-b]pyrazin-2-yl)-2′-methoxy-5-methyl-[1,1′-biphenyl]-2-carboxamide] | > 10 µM |  | 

The remaining lines, values behind:

Row | Compound | IC50 [1] | IC50 (DLD-1 BRCA2 (−/−) cells; [2]) | IC50 (DLD-1 parental cells; [3]) | IC50 (DLD-1 BRCA2 (−/−) cells; DLD-1, 168 h) | IC50 (DLD-1 parental cells; DLD-1, 168 h)
7 | COc1cnc(C(F)(F)F)cc1-c1cc(C)ncc1C(=O)Nc1nc2ncc(-c3ccc(C#N)cc3)nc2s1 [Compound 73, N-(6-(4-cyanophenyl)thiazolo[4,5-b]pyrazin-2-yl)-5′-methoxy-6-methyl-2′-(trifluoromethyl)-[4,4′-bipyridine]-3-carboxamide] | < 100 nM | < 200 nM | > 10 µM |  | 
8 | Cc1cc(-c2cc(C)ncc2C(=O)Nc2nc3ncc(-c4ccc(C#N)cc4)nc3s2)c(OC(F)F)cn1 [Compound 74, N-(6-(4-cyanophenyl)thiazolo[4,5-b]pyrazin-2-yl)-5′-(difluoromethoxy)-2′,6-dimethyl-[4,4′-bipyridine]-3-carboxamide] | < 100 nM | < 200 nM | > 10 µM |  | 
9 | COc1ccc(-c2cnc3nc(NC(=O)c4cnc(C)cc4-c4cc(C)ncc4OC)sc3n2)nc1 [Compound 75, 5′-methoxy-N-[6-(5-methoxypyridin-2-yl)thiazolo[4,5-b]pyrazin-2-yl]-2′,6-dimethyl-[4,4′-bipyridine]-3-carboxamide] | < 100 nM |  |  | < 200 nM | > 10 µM
10 | COc1ccc(Cl)cc1-c1cc(C)ncc1C(=O)Nc1nc2ncc(-c3ccc(C4CC4)cn3)nc2s1 [Compound 77, 4-(5-chloro-2-methoxyphenyl)-N-[6-(5-cyclopropylpyridin-2-yl)thiazolo[4,5-b]pyrazin-2-yl]-6-methylpyridine-3-carboxamide] | < 100 nM | < 200 nM | > 10 µM |  | 
11 | COc1ccc(Cl)cc1-c1cc(C)ncc1C(=O)Nc1nc2ncc(-c3ccc(C(C)(C)O)cn3)nc2s1 [Compound 78, 4-(5-chloro-2-methoxyphenyl)-N-(6-(5-(2-hydroxyprop-2-yl)pyridin-2-yl)thiazolo[4,5-b]pyrazin-2-yl)-6-methylpyridine-3-carboxamide] | < 100 nM | < 200 nM | > 10 µM |  | 
12 | COc1ccc(Cl)cc1-c1cc(C)ncc1C(=O)Nc1nc2ncc(-c3ccc(C4CC4)cc3)nc2s1 [Compound 79, 4-(5-chloro-2-methoxyphenyl)-N-(6-(4-cyclopropylphenyl)thiazolo[4,5-b]pyrazin-2-yl)-6-methylpyridine-3-carboxamide] | < 100 nM | < 200 nM | > 10 µM |  | 
13 | COc1ccc(Cl)cc1-c1cc(C)ncc1C(=O)Nc1nc2ncc(-c3ccc(OC(F)F)cc3)nc2s1 [Compound 80, 4-(5-chloro-2-methoxyphenyl)-N-(6-(4-(difluoromethoxy)phenyl)thiazolo[4,5-b]pyrazin-2-yl)-6-methylpyridine-3-carboxamide] | < 100 nM | < 200 nM | > 10 µM |  | 
14 | COc1cnc(C)cc1-c1cc(C)ncc1C(=O)Nc1nc2ncc(-c3ccc(OC(F)(F)F)cc3)nc2s1 [Compound 81, 5′-methoxy-2′,6-dimethyl-N-(6-(4-(trifluoromethoxy)phenyl)thiazolo[4,5-b]pyrazin-2-yl)-[4,4′-bipyridine]-3-carboxamide] | < 100 nM | < 200 nM | > 10 µM |  | 
15 | COc1cnc(C)cc1-c1cc(C)ncc1C(=O)Nc1nc2ncc(-c3ccc(C4CC4)cc3)nc2s1 [Compound 82, N-(6-(4-cyclopropylphenyl)thiazolo[4,5-b]pyrazin-2-yl)-5′-methoxy-2′,6-dimethyl-[4,4′-bipyridine]-3-carboxamide] | < 100 nM | < 200 nM | > 10 µM |  | 
16 | COc1cnc(C2CC2)cc1-c1cc(C)ncc1C(=O)Nc1nc2ncc(-c3ccc(C4CC4)cc3)nc2s1 [Compound 83, 2′-cyclopropyl-N-(6-(4-cyclopropylphenyl)thiazolo[4,5-b]pyrazin-2-yl)-5′-methoxy-6-methyl-[4,4′-bipyridine]-3-carboxamide] | < 100 nM | < 200 nM | > 10 µM |  | 
17 | Cc1cc(-c2cc(Cl)ccc2OC2CC2)c(C(=O)Nc2nc3ncc(-c4ccc(C#N)cc4)nc3s2)cn1 [Compound 94, 4-(5-chloro-2-cyclopropoxyphenyl)-N-(6-(4-cyanophenyl)thiazolo[4,5-b]pyrazin-2-yl)-6-methylpyridine-3-carboxamide] | < 100 nM |  |  | < 200 nM | > 10 µM
